Laboratory results as given in the Deep4Chem optical property database.
Several values for one entry are separate records, joined by “and”; a condition that tells them apart may be missing. Equal entries are not always repeated. Each block holds one compound with its values, some of them ahead of it.

Experiment: solvent given as SMILES

absorption maximum (in O): 494 nm
Compound: CC[n+]1nc2cc3c4c(c2c2cc(F)ccc21)CCCN4CCC3

absorption maximum (in ClCCl): 350 nm
Compound: CC(C)(C)NC(=O)c1ccc(-c2cc3ccccc3s2)c2ccc3c4ccccc4c4ccccc4c3c12

absorption maximum (in ClCCl): 655 nm
Compound: COc1ccc(C#Cc2c3cc4ccccc4cc3c(C#C[Si](C(C)C)(C(C)C)C(C)C)c3cc4ccccc4cc23)cc1

absorption maximum (in CCO): 339 nm
Compound: Cc1cc(=O)oc2cc3cc(-c4cn(Cc5ccccc5)nn4)ccc3cc12

absorption maximum (in ClCCl): 529 nm
Compound: CCC1=C(C)C2=C(/C=C/c3ccc(OC)cc3)c3c(C)c(CC)c(C)n3[B-](F)(F)[N+]2=C1C

absorption maximum (in CCO): 430 nm
Compound: CCOC(=O)c1cc(C(=O)OCC)c2ccc(N(C)C)cc2n1

absorption maximum (in CC#N): 398 nm
Compound: CCOC(=O)c1c2c3c(cccc3c3cc4ccccc4cc13)N(C)C2=O

absorption maximum (in ClC(Cl)Cl): 727 nm
Compound: CC(C)C1=c2c(c3[nH]cc(C(C)C)c3c3ccccc23)=[N+]2C1=Cc1c(C(C)C)c3c4ccccc4c4c(C(C)C)c[nH]c4c3n1[B-]2(F)F

absorption maximum (in CC#N): 365 nm
Compound: N#C/C(=C\c1ccc(Cl)cc1)c1nc(-c2ccccc2)c(-c2ccccc2)s1

absorption maximum (in ClCCl): 721 nm
Compound: Cc1ccc(/C2=C3N=C(C(c4ccccc4)=C/3c3ccccc3)/C(c3ccc(C)cc3)=c3\[nH]/c(c(-c4ccccc4)c3-c3ccccc3)=C(/c3ccc(C)cc3)C3=N/C(=C(/c4ccc(C)cc4)c4[nH]c2c(-c2ccccc2)c4-c2ccccc2)C(c2ccccc2)=C3c2ccccc2)cc1

absorption maximum (in CC#N): 334 nm
Compound: Cc1ccc(-c2ccc(/C=C/c3ccc(F)cc3)cn2)nc1

absorption maximum (in ClCCl): 550 nm
Compound: CCCCCCOc1cc(/C=C/c2cc(OCCCCCC)c(/C=C/c3cc(OCCCCCC)c(C=C4C(=O)c5ccccc5C4=O)cc3OCCCCCC)cc2OCCCCCC)c(OCCCCCC)cc1C=C1C(=O)c2ccccc2C1=O

absorption maximum (in O): 360 nm
Compound: O=C([O-])c1cc2c(ccc3ccccc32)oc1=O

absorption maximum (in CC#N): 408.61 nm
absorption maximum (in CCCCCC): 408.61 nm
Compound: O=C1c2cc(F)ccc2-c2cnccc21

absorption maximum (in CC1CCCCC1): 332 nm
absorption maximum (in CC#N): 333 nm
absorption maximum (in CO): 337 nm
Compound: COC(=O)C(NC(=O)OC(C)(C)C)c1ccc2oc(-c3cc(OC)ccc3OC)nc2c1 (centres undefined)

absorption maximum (in C1CCOC1): 323 nm
absorption maximum (in C1COCCO1): 314 nm
absorption maximum (in CC#N): 315 nm
absorption maximum (in CC(C)O): 327 nm
absorption maximum (in CCCCO): 329 nm
absorption maximum (in CCCO): 329 nm
absorption maximum (in CCOC(C)=O): 315 nm
absorption maximum (in CN(C)C=O): 325 nm
absorption maximum (in CO): 327 nm
absorption maximum (in CS(C)=O): 326 nm
absorption maximum (in ClC(Cl)Cl): 311 nm
absorption maximum (in O): 322 nm
Compound: Cc1cc(=O)c2ccc(N)cc2o1

absorption maximum (in ClC(Cl)Cl): 485 nm
Compound: N#Cc1nc(N(Cc2ccc(Br)cc2)Cc2ccc(Br)cc2)c(C#N)nc1N(Cc1ccc(Br)cc1)Cc1ccc(Br)cc1

absorption maximum (in C1CCOC1): 422 nm
absorption maximum (in CC#N): 413 nm
absorption maximum (in CN(C)C=O): 426 nm
absorption maximum (in ClC(Cl)Cl): 425 nm
absorption maximum (in c1ccccc1): 426 nm
Compound: CN(C)c1ccc(C#Cc2ccc(C#Cc3ccc(C#Cc4ccccc4C#N)cc3C#N)cc2C#N)cc1

absorption maximum (in ClC(Cl)Cl): 366 nm
Compound: Clc1ccc(-c2nc(-c3ccccc3)sc2N(c2ccccc2)c2ccccc2)cc1

absorption maximum (in ClCCl): 386 nm
Compound: CN(C)c1ccc(-c2ccc(/C=C/c3ccncn3)cc2)cc1

absorption maximum (in C1CCCCC1): 350 nm
absorption maximum (in CO): 350 nm
Compound: N#C/C(=C\c1ccc(Cl)cc1)c1nc2ccccc2s1

absorption maximum (in ClC(Cl)Cl): 347 nm
Compound: CC(C)(C)c1ccc2oc3nc4oc5ccc(N6c7ccccc7Oc7ccccc76)cc5c4cc3c2c1

absorption maximum (in ClCCl): 630 nm
Compound: COCCOCCOCN1C(=O)c2ccc3c(-c4ccccc4)c4c5ccc6c7c(ccc(c(-c8ccccc8)c4c4ccc(c2c34)C1=O)c75)C(=O)N(COCCOCCOC)C6=O

absorption maximum (in C1CCCCC1): 420 nm
absorption maximum (in CC#N): 432 nm
absorption maximum (in CCO): 432 nm
Compound: COc1cccc2c1-c1ccccc1C2=O

absorption maximum (in CO): 276 nm
Compound: N#Cc1c(-n2nnc3ccc(Cl)cc32)n([C@H]2C[C@H](O)[C@@H](CO)O2)c2ncnc(N)c12

absorption maximum (in CC#N): 288 nm
absorption maximum (in CCO): 292 nm
absorption maximum (in CO): 287 nm
Compound: COc1cccc(-n2c(-c3ccc(O)cc3)nc(C)c2C)c1

absorption maximum (in CCOC(C)=O): 325 nm
Compound: CCn1c(-c2ccc(-c3ccc4c(c3)C(c3ccccc3)(c3ccccc3)c3ccccc3-4)cc2)c(-c2ccc3ccccc3c2)c(-c2ccc3ccccc3c2)c1-c1ccc(-c2ccc3c(c2)C(c2ccccc2)(c2ccccc2)c2ccccc2-3)cc1

absorption maximum (in C1CCOC1): 377 nm
Compound: c1ccc2c(c1)-c1ccccc1C21c2ccccc2-c2c1c1c3ccccc3ccc1c1ccccc21

absorption maximum (in ClC(Cl)Cl): 416 nm
Compound: CCCCCCN1C(=O)c2cccc3c(-c4sc(-c5ccc6c7c(cccc57)C(=O)N(CCCCCC)C6=O)c5c4OCCO5)ccc(c23)C1=O

absorption maximum (in ClC(Cl)Cl): 380 nm
Compound: CCCCCCN1C(=O)c2cccc3cc(/N=C\c4ccc(N(c5ccccc5)c5ccccc5)cc4)cc(c23)C1=O

Further lines, the compound ahead of its results:

Compound: C[Si](C)(C)C#Cc1c2c(=O)c3ccccc3c2c(C#C[Si](C)(C)C)c2c(=O)c3ccccc3c12
absorption maximum (in ClC(Cl)Cl): 524 nm

Compound: COc1cc2oc(=O)c3c4ccc(C=O)cc4c4ccc5cccc6c(c1)c2c3c4c56
absorption maximum (in C1CCOC1): 425 nm

Compound: CC1=[N+]2C(=C(c3c4ccccc4cc4ccccc34)c3ccc(C)n3[B-]2(F)F)C=C1
absorption maximum (in C1CCOC1): 517 nm
absorption maximum (in CC#N): 514 nm
absorption maximum (in CCCCCC): 515 nm and 516 nm
absorption maximum (in CCO): 515 nm
absorption maximum (in CN(C)C=O): 517 nm
absorption maximum (in CO): 517 nm
absorption maximum (in CS(C)=O): 519 nm
absorption maximum (in Cc1ccccc1): 519 nm
absorption maximum (in ClC(Cl)Cl): 518 nm
absorption maximum (in ClCCl): 518 nm

Compound: Brc1ccc(N2c3c(sc4ccccc34)Sc3sc4ccccc4c32)cc1
absorption maximum (in ClCCl): 309 nm

Compound: COc1cc2c(cc1-c1ccc(N(C)C)cc1)Cc1c3c(c4c(c1-2)-c1cc(OC)c(-c2ccc(N(C)C)cc2)cc1C4)C(=O)N(CCC(C)C)C3=O
absorption maximum (in C1CCOC1): 440 nm

Compound: N#CC1=C(N)n2c(=O)c3ccccc3c(=O)n2C1c1ccccc1 (centres undefined)
absorption maximum (in CS(C)=O): 360 nm

Compound: CC(C)[Si](C#Cc1c2ccc(C(C)(C)C)cc2c(C#Cc2c3ccc(C(C)(C)C)cc3c(C#Cc3c4ccc(C(C)(C)C)cc4c(C#C[Si](C(C)C)(C(C)C)C(C)C)c4ccc(C(C)(C)C)cc34)c3ccc(C(C)(C)C)cc23)c2ccc(C(C)(C)C)cc12)(C(C)C)C(C)C
absorption maximum (in Cc1ccccc1): 570 nm

Compound: CCC1=C(C)C(=O)n2c1cc1c(CCC(=O)O)c(C)c(C)n1c2=O
absorption maximum (in CC#N): 416 nm
absorption maximum (in CC(C)=O): 415 nm
absorption maximum (in CO): 421 nm
absorption maximum (in CS(C)=O): 421 nm
absorption maximum (in ClC(Cl)Cl): 423 nm
absorption maximum (in c1ccccc1): 419 nm

Compound: COc1ccc(C2=C(c3ccc(F)cc3)C(c3ccccc3)=[N+]3C2=Nc2c(-c4ccc(OC)cc4)c(-c4ccc(F)cc4)c(-c4ccccc4)n2[B-]3(F)F)cc1
absorption maximum (in Cc1ccccc1): 653 nm

Compound: c1ccc2c[n+]3ccccc3cc2c1
absorption maximum (in O): 396 nm

Compound: CCC1=C(C)C2=C(C)c3c(C)c(-c4csc(N5CCOCC5)n4)c(C)n3[B-](F)(F)[N+]2=C1C
absorption maximum (in C1CCOC1): 524 nm
absorption maximum (in C1COCCO1): 524 nm
absorption maximum (in CC#N): 516 nm
absorption maximum (in CC(C)O): 518 nm
absorption maximum (in CCO): 516 nm
absorption maximum (in CCOC(C)=O): 520 nm
absorption maximum (in CN(C)C=O): 524 nm
absorption maximum (in CO): 514 nm
absorption maximum (in CS(C)=O): 521 nm
absorption maximum (in Cc1ccccc1): 527 nm
absorption maximum (in ClC(Cl)Cl): 523 nm
absorption maximum (in ClCCl): 522 nm

Compound: CCCCCCCCN1c2ccc(C#Cc3ccc(OC)cc3)cc2Sc2cc(C=O)ccc21
absorption maximum (in C1CCOC1): 378 nm
absorption maximum (in CC#N): 380.01 nm
absorption maximum (in CCCCCC): 374 nm
absorption maximum (in CO): 351.11 nm
absorption maximum (in CS(C)=O): 383.45 nm
absorption maximum (in Cc1ccccc1): 383 nm
absorption maximum (in ClC(Cl)Cl): 382.5 nm

Compound: C(=C\c1ccc(-c2nnc(-c3ccc(/C=C/c4ccc(-c5nc(-c6ccccc6)c(-c6ccccc6)[nH]5)cc4)cc3)o2)cc1)/c1ccc(-c2nc(-c3ccccc3)c(-c3ccccc3)[nH]2)cc1
absorption maximum (in C1CCOC1): 396 nm
absorption maximum (in CC#N): 391 nm
absorption maximum (in CN(C)C=O): 397 nm
absorption maximum (in Cc1ccccc1): 397 nm

Compound: c1ccc2c(c1)Cc1ccccc1N2c1c2ccccc2c(N2c3ccccc3Cc3ccccc32)c2ccccc12
absorption maximum (in Cc1ccccc1): 440 nm

Compound: CC[N+]1(CC)CN2C(=N1)C(C(=O)O)=Cc1c(OC)ccc(OC)c12
absorption maximum (in O): 368 nm

Compound: CC1=C(c2cccs2)C(C)=[N+]2C1=C(c1ccccc1)c1c(C)c(-c3cccs3)c(C)n1[B-]2(F)F
absorption maximum (in CO): 521 nm
absorption maximum (in Cc1ccccc1): 530 nm
absorption maximum (in ClCCl): 527 nm

Compound: COc1ccc(-n2cccc2)cc1
absorption maximum (in CC#N): 252 nm
absorption maximum (in CCCCCC): 252 nm

Compound: C(#Cc1nc(C#Cc2ccccc2)c(C#Cc2ccccc2)c(C#Cc2ccccc2)c1C#Cc1ccccc1)c1ccccc1
absorption maximum (in ClCCl): 421 nm

Compound: CC1(C)c2ccccc2N(c2cc(C#N)c(C#N)cc2N2c3ccccc3C(C)(C)c3ccccc32)c2ccccc21
absorption maximum (in c1ccc2c(c1)c1ccccc1n2-c1ccc(-c2ccc(-n3c4ccccc4c4ccccc43)cc2)cc1): 494 nm

Compound: O=C1CC(c2ccc(C(F)(F)F)cc2)c2c(c3ccccc3c3nc4ccccc4nc23)O1 (centres undefined)
absorption maximum (in ClC(Cl)Cl): 409 nm

Compound: CC(C)Oc1ccc(C#Cc2cc3ccccc3oc2=O)cc1
absorption maximum (in CC#N): 356 nm

Compound: CC(C)=CCN1C(=O)c2cccc3c2c(cc2oc(C)nc23)C1=O
absorption maximum (in CCO): 362 nm

Compound: Cc1ccc(C)cc1
absorption maximum (in C1CCCCC1): 262.88 nm

Compound: O=Cc1ccc2ccc3cccc4ccc1c2c34
absorption maximum (in C1CCOC1): 391 nm
absorption maximum (in CC#N): 390 nm
absorption maximum (in CCCCCC): 387 nm
absorption maximum (in CCO): 389 nm
absorption maximum (in CN(C)C=O): 390 nm
absorption maximum (in CO): 389 nm
absorption maximum (in Cc1ccccc1): 391 nm
absorption maximum (in ClCCl): 392 nm

Compound: c1ccc(N(c2ccccc2)c2ccc3ccc4c(N(c5ccccc5)c5ccccc5)ccc5ccc2c3c54)cc1
absorption maximum (in Cc1ccccc1): 426 nm
absorption maximum (in ClCCl): 423 nm

Compound: CCCN1c2ccccc2Sc2cc(/C=C\c3cc(=O)oc4cc(O)ccc34)ccc21
absorption maximum (in ClC(Cl)Cl): 422 nm
